In patent US5610297A, “Peptides ketoamides” (Georgia Tech Research Corp., priority 1995, dated 1997):

Columns and labels:
[1] = target: T1, Calpain I from human erythrocytes (Homo sapiens, UniProt P07384); assay: Inhibition of calpain I (Suc-Leu-Tyr-AMC hydrolysis); format: biochemical
T1 construct: Calpain I was purified from human erythrocytes; from tissue; host or cells: human erythrocytes
T1 sequence (P07384 1-714): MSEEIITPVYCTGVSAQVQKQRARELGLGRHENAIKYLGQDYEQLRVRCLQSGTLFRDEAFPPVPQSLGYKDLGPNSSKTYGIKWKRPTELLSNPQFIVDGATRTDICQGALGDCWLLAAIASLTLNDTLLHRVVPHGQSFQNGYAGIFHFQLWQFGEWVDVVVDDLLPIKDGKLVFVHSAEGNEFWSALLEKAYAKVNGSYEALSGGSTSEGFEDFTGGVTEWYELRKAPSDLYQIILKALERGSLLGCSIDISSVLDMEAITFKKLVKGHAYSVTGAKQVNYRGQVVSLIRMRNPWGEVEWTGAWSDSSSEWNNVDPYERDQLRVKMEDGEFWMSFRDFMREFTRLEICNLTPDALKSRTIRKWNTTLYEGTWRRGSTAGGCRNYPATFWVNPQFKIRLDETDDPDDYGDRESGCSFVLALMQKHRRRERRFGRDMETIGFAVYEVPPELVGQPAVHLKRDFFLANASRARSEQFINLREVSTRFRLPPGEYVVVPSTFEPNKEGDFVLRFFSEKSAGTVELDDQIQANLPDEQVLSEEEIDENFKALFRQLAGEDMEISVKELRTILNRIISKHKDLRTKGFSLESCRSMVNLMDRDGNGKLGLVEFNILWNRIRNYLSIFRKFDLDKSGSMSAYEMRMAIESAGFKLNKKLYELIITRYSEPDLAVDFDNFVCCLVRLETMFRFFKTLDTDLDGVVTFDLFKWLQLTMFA
T1 sequence (P04632 1-268 partner): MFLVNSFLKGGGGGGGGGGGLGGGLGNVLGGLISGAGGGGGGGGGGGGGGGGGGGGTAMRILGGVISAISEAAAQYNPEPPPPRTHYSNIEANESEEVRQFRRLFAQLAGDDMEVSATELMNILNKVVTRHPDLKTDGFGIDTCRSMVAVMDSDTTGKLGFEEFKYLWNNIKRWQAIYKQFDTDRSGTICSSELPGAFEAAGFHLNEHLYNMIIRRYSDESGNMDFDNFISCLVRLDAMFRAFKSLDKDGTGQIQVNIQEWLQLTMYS
Method: Materials and Methods. HEPES, heparin, and A23187 were obtained from Calbiochem. Suc-Leu-Tyr-AMC and chromogenic substrates were obtained from Sigma. Calpain I was purified from human erythrocytes according to the method of Kitahara (Kitahara et al., J. Biochem. 95, 1759-1766) omitting the Blue-Sepharose step. Calpain II from rabbit muscle and cathepsin B were purchased from Sigma. Papain was purchased from Calbiochem.
(§1) Assay of Inhibitory Potency. Peptide α-ketoamides were assayed as reversible enzyme inhibitors. Various concentrations of inhibitors in Me2 SO were added to the assay mixture which contained buffer and substrate. The reaction was started by the addition of the enzyme and the hydrolysis rates were followed spectrophotometrically or fluorimetrically.
Calpain I from human erythrocytes and calpain II from rabbit were assayed using Suc-Leu-Tyr-AMC [Sasaki et al., J. Biol. Chem. 259, 12489-12494 (1984); incorporated herein by reference], and the AMC (7-amino-4-methylcoumarin) release was followed fluorimetrically (excitation at 380 nm, and emmision at 460 nm). Calpains were assayed in 25 mM Tris pH=8.0, 10 mM CaCl2. Fluorescence was followed using a Gilson FL-1A fluorometer or a Perkin-Elmer 203 Fluorescence spectrometer. Cathepsin B was assayed in 20 mM sodium acetate pH=5.2, 0.5 mM dithiothreitol using Bz-Phe-Val-Arg-p-nitroanilide as substrate. Alternately, cathepsin B was assayed with Z-Arg-Arg-AFC [Barrett and Kirschke, Methods Enzymol. 80, 535-561 (1981); incorporated herein by reference], and the AFC (7-amino-4-trifluoromethylcoumarin) release was followed fluorimetrically (excitation at 400 nm and emmision at 505 nm). Papain was assayed in 100 mM KPO4, 1 mM EDTA, 2.5 mM cysteine pH=6.0 using Bz-Arg-AMC or Bz-Arg-NA [Kanaoka et al., Chem. Plmrm. Bull. 25, 3126-3128 (1977); incorporated herein by reference] as a substrate. The AMC (7-amino-4-methylcoumarin) release was followed fluorimetrically (excitation at 380 nm, and emmision at 460 nm). Enzymatic hydrolysis rates were measured at various substrate and inhibitor concentrations, and KI values were determined by either Lineweaver-Burk plots or Dixon plots.
(§2) A 0.1M Hepes, 0.5M NaCl, pH 7.5 buffer was utilized for human leukocyte elastase (HLE), porcine pancreatic elastase (PPE), chymotrypsin and cathepsin G. A 0.1 Hepes, 0.01M CaCl2, pH 7.5 buffer was utilized for trypsin, plasmin, and coagulation enzymes. A 50 mM Tris-HCl, 2 mM EDTA, 5 mM cysteine, pH 7.5 was used as a buffer for papain. A 88 mM KH2 PO4, 12 mM Na2 HPO4, 1.33 mM EDTA, 2.7 mM cysteine, pH 6.0 solution was used as a buffer for cathepsin B. A 20 mM Hepes, 10 mM CaCl2, 10 mM mercatoethanol, pH 7.2 buffer was utilized for calpain I and calpain II.

[2] = target: chymotrypsin (Bos taurus, UniProt P00766, DEL14-15/DEL147-148); assay: Inhibition of chymotrypsin (Suc-Val-Pro-Phe-NA hydrolysis); format: biochemical, bovine
Method: as §1, §2
(§3) HLE and PPE were assayed with MeO-Suc-Ala-Ala-Pro-Val-NA and Suc-Ala-Ala-Ala-NA, respectively [Nakajima et al., J. Biol. Chem. 254, 4027-4032 (1979); incorporated herein by reference]. Human leukocyte cathepsin G and chymotrypsin Aα were assayed with Suc-Val-Pro-Phe-NA [Tanaka et al., Biochemistry 24, 2040-2047 (1985); incorporated herein by reference]. The hydrolysis of peptide 4-nitroanilides was measured at 410 nm [ε410 =8800 M^-1 cm^-1; Erlanger et al., Arch. Biochem. Biophys. 95, pp 271-278 (1961); incorporated herein by reference]. Trypsin, thrombin, human plasma kallikrein, porcine pancreatic kallikrein, human factor XIa, and human plasmin were assayed with Z-Arg-SBzl or Z-Gly-Arg-SBu-i [McRae et al., Biochemistry 20, 7196-7206 (1981); incorporated herein by reference]. All peptide thioester hydrolysis rates were measured with assay mixtures containing 4,4'-dithiodipyridine [ε324 =19800 M^-1 cm^-1; Grasetti & Murray, Arch. Biochem. Biophys. 119, 41-49 (1967); incorporated herein by reference].

[3] = target: porcine pancreatic elastase (PPE) (Sus scrofa, UniProt P00772); assay: Inhibition of PP elastase (Suc-Ala-Ala-Ala-NA hydrolysis); format: biochemical
Sequence of porcine pancreatic elastase (PPE) (P00772 27-266): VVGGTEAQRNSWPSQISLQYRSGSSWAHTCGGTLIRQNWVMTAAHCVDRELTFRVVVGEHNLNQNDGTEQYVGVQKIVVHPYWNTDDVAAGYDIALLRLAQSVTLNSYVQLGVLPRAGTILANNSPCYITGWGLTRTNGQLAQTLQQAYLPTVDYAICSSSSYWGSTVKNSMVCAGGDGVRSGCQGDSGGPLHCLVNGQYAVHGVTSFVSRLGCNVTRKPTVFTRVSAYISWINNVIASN
Method: as §1, §2, §3

[4] = Half-life in liver; format: in vitro ADME; conditions: unit inferred, unit assumed
[5] = Half-life in plasma; format: in vitro ADME; conditions: unit inferred, unit assumed

Row | SMILES | Ki [1] | Ki [2] | Ki [3] | t 1/2 liver [4] | t 1/2 plasma [5] | better inhibitor of calpain I than Z-Leu-Phe-CONH-Et ([1]; relative to Z-Leu-Phe-CONH-Et)
1 | CCNC(=O)C(=O)[C@H](Cc1ccccc1)NC(=O)[C@H](CC(C)C)NC(=O)OCc1ccccc1 [Z--Leu--Phe--CONH--Et, Z-Leu-Phe-CONH-Et] | 7 µM | 73 µM | > 150 µM | > 1 h | > 1 h | –
2 | CCNC(=O)C(=O)[C@H](CC)NC(=O)[C@H](CC(C)C)NC(=O)OCc1ccccc1 [Z--Leu--Abu--CONH--Et, Z-Leu-Abu-CONH-Et] | 0.5 µM | > 150 µM | 65 µM | > 1 h | > 1 h | 14 fold
3 | CCCNC(=O)C(=O)C(Cc1ccccc1)NC(=O)C(CC(C)C)NC(=O)OCc1ccccc1 (stereo not drawn) [Z--Leu--Phe--CONH--nPr, Z-Leu-Phe-CONH-nPr] | 15 µM | 18 µM | > 300 µM | > 1 h | > 1 h | –
4 | CCCCNC(=O)C(=O)C(CC)NC(=O)C(CC(C)C)NC(=O)OCc1ccccc1 (stereo not drawn) [Z--Leu--Abu--CONH--nBu, Z-Leu-Abu-CONH-nBu] | 0.2 µM | > 300 µM | 5 µM | > 1 h | > 1 h | –
